Assay results as given in patent US8802663B2, “Pyrazole oxadiazole derivatives as S1P1 agonists” (Merck Serono SA, priority 2009, dated 2014).
Where a name gives a salt, the structure may show the parent alone.

Each compound was assayed against S1P1 (Homo sapiens (Human), UniProt P21453) (assay: 35S-GTPγS binding, membranes from CHO cells expressing S1P1). Conditions: CHO cell membranes.
Chain of S1P1 (P21453 whole entry, species assumed): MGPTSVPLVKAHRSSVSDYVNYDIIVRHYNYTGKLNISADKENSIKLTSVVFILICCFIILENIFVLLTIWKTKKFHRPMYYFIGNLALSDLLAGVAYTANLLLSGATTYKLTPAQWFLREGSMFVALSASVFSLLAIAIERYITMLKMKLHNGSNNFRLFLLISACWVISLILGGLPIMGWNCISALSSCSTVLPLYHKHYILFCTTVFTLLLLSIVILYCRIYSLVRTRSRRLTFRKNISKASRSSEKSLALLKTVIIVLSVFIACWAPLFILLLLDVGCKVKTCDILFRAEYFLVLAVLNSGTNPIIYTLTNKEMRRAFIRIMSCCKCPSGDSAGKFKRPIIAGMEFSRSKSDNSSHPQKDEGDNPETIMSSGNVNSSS
Type: biochemical
Procedure: Cells were suspended in 50 mM TRIS, pH 7.4, 2 mM EDTA, 250 mM Sucrose (buffer A) and 1× Complete protease inhibitor cocktail (Roche), and disrupted at 4° C. by N2 decompression using a cell disruption bomb (Parr Instrument). Following centrifugation at 1000 RPM for 10 min at 4° C., the supernatant was suspended in buffer A and centrifuged again at 19000 RPM for 60 min at 4° C. The pellet was then suspended in 10 mM HEPES, pH 7.4, 1 mM EDTA, 250 mM Sucrose (Buffer B), and 1× Complete EDTA-free protease inhibitor cocktail and homogenized using a potter. Membranes were flash frozen in liquid N2 and stored at −80° C. [33P]sphingosine 1-phosphate (3000 Ci/mmol; American Radiolabeled Chemicals, Inc.) was added to test compounds in DMSO. […] Specific binding was calculated by subtracting remaining radioactivity in the presence of 1000-fold excess of unlabeled SIP. Binding data were analyzed using the GraphPad Prism program.
After 60 min incubation at 30° C. on a shaker, plates were centrifuged for 10 min at 2000 RPM. […] Triplicate samples were averaged and expressed as % response relative to S1P activation in absence of compound (n=2).
With `c1cc(-c2c(-c3nc(-c4ccc(CN5CCC5)cc4)no3)cnn2C2CCCCC2)ccn1` [Example 66, 4-(4-{3-[4-(azetidin-1-ylmethyl)phenyl]-1,2,4-oxadiazol-5-yl}-1-cyclohexyl-1H-pyrazol-5-yl)pyridine] the EC50 was 13 nM.
`CC(C)Cn1ncc(-c2nc(-c3ccc4c(c3)CNCC4)no2)c1-c1ccncc1` [Example 36, 7-[5-(1-isobutyl-5-pyridin-4-yl-1H-pyrazol-4-yl)-1,2,4-oxadiazol-3-yl]-1,2,3,4-tetrahydroisoquinoline] was tested, and the EC50 was 114 nM.
`COCc1c(-c2nc(-c3ccc(CN4CCC(C(=O)O)CC4)cc3)no2)cnn1C1CCCCC1` [Example 64, 1-(4-{5-[1-cyclohexyl-5-(methoxymethyl)-1H-pyrazol-4-yl]-1,2,4-oxadiazol-3-yl}benzyl)piperidine-4-carboxylic acid] showed an EC50 of 99 nM.
`COCc1c(-c2nc(-c3ccc(CCN(C)C)cc3)no2)cnn1C1CCCCC1` [Example 127, 2-(4-(5-(1-cyclohexyl-5-(methoxymethyl)-1H-pyrazol-4-yl)-1,2,4-oxadiazol-3-yl)phenyl)-N,N-dimethylethanamine] showed an EC50 of 172 nM.
`CCCn1ncc(-c2nc(-c3cc(F)ccc3F)no2)c1-c1ccccc1` [Example 14, 3-(2,5-difluorophenyl)-5-(5-phenyl-1-propyl-1H-pyrazol-4-yl)-1,2,4-oxadiazole] was tested, and the EC50 was 201 nM.
With `COCc1c(-c2nc(-c3ccc(CCNC(C)C)cc3)no2)cnn1C1CCCCC1` [Example 128, N-(4-(5-(1-cyclohexyl-5-(methoxymethyl)-1H-pyrazol-4-yl)-1,2,4-oxadiazol-3-yl)phenethyl)propan-2-amine formate] the EC50 was 158 nM.
In the case of `COCc1c(-c2nc(-c3ccc4c(c3)CN(CCC(=O)O)CC4)no2)cnn1C1CCCCC1` [Example 118, 3-(7-(5-(1-cyclohexyl-5-(methoxymethyl)-1H-pyrazol-4-yl)-1,2,4-oxadiazol-3-yl)-3,4-dihydroisoquinolin-2(1H)-yl)propanoic acid], the EC50 is reported as 398 nM.
`CNCc1ccc(-c2noc(-c3cnn(CC(C)(C)C)c3-c3ccncc3)n2)cc1` [Example 104, N-methyl-1-(4-(5-(1-neopentyl-5-(pyridin-4-yl)-1H-pyrazol-4-yl)-1,2,4-oxadiazol-3-yl)phenyl)methanamine] gave an EC50 of 314 nM.
`COCc1c(-c2nc(-c3ccc(Cn4cccn4)cc3)no2)cnn1C1CCCCC1` [Example 114, 3-(4-((1H-pyrazol-1-yl)methyl)phenyl)-5-(1-cyclohexyl-5-(methoxymethyl)-1H-pyrazol-4-yl)-1,2,4-oxadiazole] showed an EC50 of 94 nM.
Compound `COCc1c(-c2nc(-c3cc(F)ccc3F)no2)cnn1CC(C)C` [Example 17, 3-(2,5-difluorophenyl)-5-(1-isobutyl-5-(methoxymethyl)-1H-pyrazol-4-yl)-1,2,4-oxadiazole] has an EC50 of 648 nM.
`O=C(O)CCNCc1ccc(-c2noc(-c3cnn(C4CCCCC4)c3-c3ccncc3)n2)cc1` [Example 65, N-{4-[5-(1-cyclohexyl-5-pyridin-4-yl-1H-pyrazol-4-yl)-1,2,4-oxadiazol-3-yl]benzyl}-beta-alanine] gave an EC50 of 1 nM.
In the case of `C[C@H]1CCCC[C@@H]1n1ncc(-c2nc(-c3cc(F)ccc3F)no2)c1-c1ccccc1` [Example 46, 3-(2,5-difluorophenyl)-5-{1-[(1S,2S)-2-methylcyclohexyl]-5-phenyl-1H-pyrazol-4-yl}-1,2,4-oxadiazole], the EC50 is reported as 26 nM.
For `Fc1ccc(F)c(-c2noc(-c3cnn(C4CCC4)c3-c3ccncc3)n2)c1` [Example 44, 4-{1-cyclobutyl-4-[3-(2,5-difluorophenyl)-1,2,4-oxadiazol-5-yl]-1H-pyrazol-5-yl}pyridine], the EC50 was 402 nM.
For `Fc1ccc(F)c(-c2nc(-c3cnn(C4CCCCC4)c3-c3ccccc3)no2)c1` [Example 57, 3-(1-cyclohexyl-5-phenyl-1H-pyrazol-4-yl)-5-(2,5-difluorophenyl)-1,2,4-oxadiazole], the EC50 was 49 nM.
Compound `COCc1c(-c2nc(-c3ccc(CN(C)C)cc3)no2)cnn1C1CCCCC1` [Example 75, 1-(4-{5-[1-cyclohexyl-5-(methoxymethyl)-1H-pyrazol-4-yl]-1,2,4-oxadiazol-3-yl}phenyl)-N,N-dimethylmethanamine] has an EC50 of 63 nM.
Compound `c1ccc(-c2c(-c3noc(-c4cccnc4)n3)cnn2C2CCCCC2)cc1` [Example 53, 3-[3-(1-cyclohexyl-5-phenyl-1H-pyrazol-4-yl)-1,2,4-oxadiazol-5-yl]pyridine] has an EC50 of 164 nM.
For `COCc1c(-c2nc(-c3ccc(OC4CCNC4)cc3)no2)cnn1C1CCCCC1` (stereo not drawn) [Example 131, 5-(1-cyclohexyl-5-(methoxymethyl)-1H-pyrazol-4-yl)-3-(4-(pyrrolidin-3-yloxy)phenyl)-1,2,4-oxadiazole], the EC50 was 181 nM.
`CCc1c(-c2nc(-c3cc(F)ccc3F)no2)cnn1CC(C)C` [Example 18, 3-(2,5-difluorophenyl)-5-(5-ethyl-1-isobutyl-1H-pyrazol-4-yl)-1,2,4-oxadiazole] was tested, and the EC50 was 776 nM.
In the case of `COCc1c(-c2nc(-c3ccc(Cn4ccnc4)cc3)no2)cnn1C1CCCCC1` [Example 119, 3-(4-((1H-imidazol-1-yl)methyl)phenyl)-5-(1-cyclohexyl-5-(methoxymethyl)-1H-pyrazol-4-yl)-1,2,4-oxadiazole], the EC50 is reported as 66 nM.
Work on `CC(C)(C)Cn1ncc(-c2nc(-c3cc(F)ccc3F)no2)c1-c1ccncc1` [Example 93, 3-(2,5-difluorophenyl)-5-(1-neopentyl-5-(pyridin-4-yl)-1H-pyrazol-4-yl)-1,2,4-oxadiazole] yielded an EC50 of 301 nM.
For `COCCNCc1ccc(-c2noc(-c3cnn(C4CCCCC4)c3-c3ccncc3)n2)cc1` [Example 78, N-(4-(5-(1-cyclohexyl-5-(pyridin-4-yl)-1H-pyrazol-4-yl)-1,2,4-oxadiazol-3-yl)benzyl)-2-methoxyethanamine], the EC50 was 67 nM.
`Brc1ccc(-c2noc(-c3cnn(C4CCCCC4)c3-c3ccncc3)n2)cc1` [Example 92, 3-(4-bromophenyl)-5-(1-cyclohexyl-5-(pyridin-4-yl)-1H-pyrazol-4-yl)-1,2,4-oxadiazole] gave an EC50 of 158 nM.
Work on `CC(C)Cn1ncc(-c2nc(-c3ccc(CO)cc3)no2)c1C1CCOCC1` [Example 63] yielded an EC50 of 428 nM.
`OCc1ccc(-c2noc(-c3cnn(C4CCCCC4)c3C3CCOCC3)n2)cc1` [Example 70, (4-{5-[1-cyclohexyl-5-(tetrahydro-2H-pyran-4-yl)-1H-pyrazol-4-yl]-1,2,4-oxadiazol-3-yl}phenyl)methanol] was tested, and the EC50 was 82 nM.
For `FC(F)(F)c1cccc(-c2nc(-c3cnn(C4CCCCC4)c3-c3ccccc3)no2)c1` [Example 59, 3-(1-cyclohexyl-5-phenyl-1H-pyrazol-4-yl)-5-[3-(trifluoromethyl)phenyl]-1,2,4-oxadiazole], the EC50 was 335 nM.
Work on `COCc1c(-c2nc(-c3ccc(CNCCC(=O)O)cc3)no2)cnn1CC(C)C` [Example 84, 3-(4-(5-(1-isobutyl-5-(methoxymethyl)-1H-pyrazol-4-yl)-1,2,4-oxadiazol-3-yl)benzylamino)propanoic acid] yielded an EC50 of 288 nM.
`CCCc1c(-c2nc(-c3cc(F)ccc3F)no2)cnn1-c1ccccc1` [Example 21, 3-(2,5-difluorophenyl)-5-(1-phenyl-5-propyl-1H-pyrazol-4-yl)-1,2,4-oxadiazole] was tested, and the EC50 was 81 nM.
`CC(C)Cn1ncc(-c2nc(-c3cccc(S(C)(=O)=O)c3)no2)c1-c1ccncc1` [Example 43, 4-(1-isobutyl-4-{3-[3-(methylsulfonyl)phenyl]-1,2,4-oxadiazol-5-yl}-1H-pyrazol-5-yl)pyridine] showed an EC50 of 292 nM.
Compound `COCc1c(-c2nc(-c3cccc(O)c3)no2)cnn1C1CCCCC1` [Example 126, 3-(5-(1-cyclohexyl-5-(methoxymethyl)-1H-pyrazol-4-yl)-1,2,4-oxadiazol-3-yl)phenol] has an EC50 of 168 nM.
Compound `COCc1c(-c2nc(-c3ccc(CNC(C)C)cc3)no2)cnn1C1CCCCC1` [Example 121, N-(4-(5-(1-cyclohexyl-5-(methoxymethyl)-1H-pyrazol-4-yl)-1,2,4-oxadiazol-3-yl)benzyl)propan-2-amine] has an EC50 of 40 nM.
In the case of `COCc1c(-c2nc(-c3ccc(CCN4CCC(C(=O)OC)CC4)cc3)no2)cnn1C1CCCCC1` [Example 129, Methyl 1-(4-(5-(1-cyclohexyl-5-(methoxymethyl)-1H-pyrazol-4-yl)-1,2,4-oxadiazol-3-yl)phenethyl)piperidine-4-carboxylate], the EC50 is reported as 438 nM.
Compound `Fc1ccc(F)c(-c2noc(-c3cnn(C4CCOCC4)c3-c3ccccc3)n2)c1` [Example 33, 3-(2,5-difluorophenyl)-5-[5-phenyl-1-(tetrahydro-2H-pyran-4-yl)-1H-pyrazol-4-yl]-1,2,4-oxadiazole] has an EC50 of 216 nM.
For `COCCc1c(-c2nc(-c3ccc(CO)cc3)no2)cnn1C1CCCCC1` [Example 115, (4-(5-(1-cyclohexyl-5-(2-methoxyethyl)-1H-pyrazol-4-yl)-1,2,4-oxadiazol-3-yl)phenyl)methanol], the EC50 was 134 nM.
`c1ccc(-c2nc(-c3cnn(C4CCCCC4)c3-c3ccccc3)no2)cc1` [Example 51, 3-(1-cyclohexyl-5-phenyl-1H-pyrazol-4-yl)-5-phenyl-1,2,4-oxadiazole] showed an EC50 of 310 nM.
`COCCc1c(-c2nc(-c3cc(F)ccc3F)no2)cnn1C1CCCCC1` [Example 103, 5-(1-cyclohexyl-5-(2-methoxyethyl)-1H-pyrazol-4-yl)-3-(2,5-difluorophenyl)-1,2,4-oxadiazole] showed an EC50 of 35 nM.
`COCc1c(-c2nc(-c3ccc(CN4CC(C(=O)O)C4)cc3)no2)cnn1CC(C)C` [Example 76, 1-(4-{5-[1-isobutyl-5-(methoxymethyl)-1H-pyrazol-4-yl]-1,2,4-oxadiazol-3-yl}benzyl)azetidine-3-carboxylic acid] gave an EC50 of 23 nM.
